Data set [1] deals with T1, NHE9 ΔCTD (Equus caballus, UniProt F7B113).
T1 construct: gene SLC9A9; residues 8-481 of 644, whole C-terminal regulatory domain removed; GFP-TwinStrep-His8 fusion for thermal shift; S. cerevisiae FGY217; purified homodimer
T1 sequence (F7B113 8-481): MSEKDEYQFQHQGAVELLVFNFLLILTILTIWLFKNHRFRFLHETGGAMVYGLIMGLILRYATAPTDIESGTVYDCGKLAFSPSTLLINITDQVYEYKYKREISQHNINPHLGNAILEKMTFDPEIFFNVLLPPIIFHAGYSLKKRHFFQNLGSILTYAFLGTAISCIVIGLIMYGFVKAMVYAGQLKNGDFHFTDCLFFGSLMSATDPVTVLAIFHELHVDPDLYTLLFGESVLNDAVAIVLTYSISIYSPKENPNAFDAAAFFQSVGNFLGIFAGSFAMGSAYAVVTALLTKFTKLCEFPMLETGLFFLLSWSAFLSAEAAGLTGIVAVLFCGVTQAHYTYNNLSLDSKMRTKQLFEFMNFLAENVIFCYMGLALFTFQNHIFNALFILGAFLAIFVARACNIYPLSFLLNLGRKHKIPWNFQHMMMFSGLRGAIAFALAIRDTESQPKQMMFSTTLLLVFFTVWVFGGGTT
Kind of data set: GFP-based thermal shift (FSEC-TS). The settings on record: 1% DDM, 1% octyl glucoside, 10 min heating; lipid 1 mg/ml in the screen. The class given is binding.

For data set [2], the target named is T2, NHE9* (Equus caballus, UniProt F7B113).
T2 construct: gene SLC9A9; residues 8-575 (8-574 elsewhere) of 644, C-terminal tail truncated; GFP-TwinStrep-His8 fusion kept for thermal shift; S. cerevisiae FGY217; purified homodimer
T2 sequence (F7B113 8-575): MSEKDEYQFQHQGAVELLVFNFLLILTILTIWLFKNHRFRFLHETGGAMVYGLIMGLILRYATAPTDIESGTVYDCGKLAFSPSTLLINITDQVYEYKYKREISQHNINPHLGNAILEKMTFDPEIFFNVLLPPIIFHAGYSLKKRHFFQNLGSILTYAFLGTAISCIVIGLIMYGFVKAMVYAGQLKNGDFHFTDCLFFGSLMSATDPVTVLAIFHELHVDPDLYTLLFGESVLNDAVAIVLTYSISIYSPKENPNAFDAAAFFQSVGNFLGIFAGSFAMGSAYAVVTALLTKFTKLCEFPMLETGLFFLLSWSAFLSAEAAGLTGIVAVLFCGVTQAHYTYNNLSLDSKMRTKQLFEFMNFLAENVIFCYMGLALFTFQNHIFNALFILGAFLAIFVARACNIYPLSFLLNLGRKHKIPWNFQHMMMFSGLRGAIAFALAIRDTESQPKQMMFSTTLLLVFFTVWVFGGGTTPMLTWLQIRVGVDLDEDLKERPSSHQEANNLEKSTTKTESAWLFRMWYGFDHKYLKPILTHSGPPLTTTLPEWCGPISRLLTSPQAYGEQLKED
The data set can be described thus: GFP-based thermal shift (FSEC-TS). The settings on record: 1% DDM, 1% octyl glucoside, 10 min heating; lipid 1 mg/ml in the screen. The class given is binding. From the text:
GFP-based thermal shift (FSEC-TS) on NHE9* | In the presence of either PIP2 or PIP3, the average melting temperature (ΔT m)

The target of data set [3] is T3, NHE9* (Equus caballus, UniProt F7B113, K85Q/K105Q/K107Q).
T3 construct: gene SLC9A9; residues 8-575 (8-574 elsewhere) of 644, C-terminal tail truncated; GFP-TwinStrep-His8 fusion kept for thermal shift; S. cerevisiae FGY217; purified homodimer
T3 sequence (F7B113 8-575 K85Q/K105Q/K107Q): T2 sequence (F7B113 8-575) with K78Q, K98Q, K100Q
Kind of data set: GFP-based thermal shift (FSEC-TS). The data set is classed as binding. The conditions noted are these: 1% DDM, 1% octyl glucoside, 10 min heating; lipid 1 mg/ml in the screen; TM2-TM3 loop mutant.

For data set [4], the target named is horse NHE9* (residues 8-575 out of 644), TEV-cleaved (Equus caballus (horse)). The data set can be described thus: native MS; 100 mM ammonium acetate pH 7.0, 0.02% (w/v) DDM; NHE9* purified with or without added brain lipids.
Data set [5] deals with the molecule itself. Kind of data set: cryo-EM structure; purified protein in LMNG/CHS, 20 mM Tris-HCl pH 7.5, 150 mM NaCl; brain lipids added during purification; no symmetry imposed (C1).

Where a chain is given by its changes, count along the chain named.

Regarding `CCCCCCCC(=O)OC[C@H](COP(=O)(O)O[C@@H]1[C@H](O)[C@H](O)[C@@H](OP(=O)(O)O)[C@H](OP(=O)(O)O)[C@H]1O)OC(=O)CCCCCCC` [PIP2, phosphatidylinositol bis‐4,5‐phosphate,1,2‐dioctanoyl], the ΔTm (as a rule, the change in melting temperature against a reference sample) is “the ΔCTD construct was also analysed, yet additional stabilization upon PIP2 addition was still observed” in data set [1]; 9 °C in data set [2]; “a triple lysine‐to‐glutamine loop mutant markedly reduced PIP2‐mediated stabilization” in data set [3].

Turning to “horse NHE9* (residues 8-575 out of 644), TEV-cleaved (domain or fragment)”, the stoichiometry N (usually a count of units in the complex or per binding partner) in data set [4] came out at 2.

Take `CCCCCCCCCCCCCCCC(=O)OC[C@H](COP(=O)(O)O[C@H]1[C@H](O)[C@@H](OP(=O)(O)O)[C@H](OP(=O)(O)O)[C@@H](OP(=O)(O)O)[C@H]1O)OC(=O)CCCCCCCCCCCCCCC` [PIP3, phosphatidylinositol tris‐3,4,5‐phosphate,1,2‐dipalmitoyl]: in data set [2], the ΔTm came to 9 °C.

B1: horse NHE9 ΔCTD (residues 8-481 out of 644) (domain or fragment, Equus caballus (horse), UniProt F7B113 8-481, looked up)
chain: T1 sequence (F7B113 8-481)
notes: horse (Equus caballus) NHE9 (SLC9A9), residues 8-481 out of 644, lacking the entire C-terminal regulatory domain; C-terminal residues left after TEV cleavage are probably as in NHE9* (surmise); also called ΔCTD construct; source: S. cerevisiae FGY217, purified (Strep-Tactin XT, TEV digestion, SEC); not shown: GFP, C-terminal, cleaved; TwinStrep, C-terminal, cleaved; His8, C-terminal, cleaved
For the molecule B1, the binding result in data set [5] is given as “binds”.

Values taken from article PMC7737618, “Structure and elevator mechanism of the mammalian sodium/proton exchanger NHE9” (The EMBO Journal, 2020).
